target: recombinant human Myt1 (Homo sapiens (Human), UniProt Q99640); test: Myt1 enzymatic assay (ADP-Glo kinase assay); assay type: biochemical; conditions: 18 nM enzyme, 10 uM ATP
Experimental: Detection of Myt1 kinase activity utilized a recombinant human Myt1 kinase assay measuring the hydrolysis of ATP using a commercially available ADP-Glo Assay (ADP-Glo™ Kinase Assay from Promega, 10 000 assays, #V9102). […] After this, 5 μL of compounds (diluted in reaction buffer to 0.5% DMSO) was added to the microplate and the plate was spun briefly and incubated at 22° C. for 15 minutes. Ultra-Pure Adenosine Triphosphate (ATP) solution (ADP-Glo kit from Promega) was diluted in reaction buffer and 5 μL was added to the microplate, spun down briefly and incubated for 60 minutes at 30° C. […] After the 60-minute incubation, 15 µL of ADP-Glo reagent was added and the plate was spun briefly and sealed and incubated in the dark for 40 minutes at 22° C. […] Luminescence was read using the Envision (250 ms integration). The IC50 and the % max inhibition were calculated for each inhibitor compound tested.

Chain of recombinant human Myt1 (Q99640 whole entry): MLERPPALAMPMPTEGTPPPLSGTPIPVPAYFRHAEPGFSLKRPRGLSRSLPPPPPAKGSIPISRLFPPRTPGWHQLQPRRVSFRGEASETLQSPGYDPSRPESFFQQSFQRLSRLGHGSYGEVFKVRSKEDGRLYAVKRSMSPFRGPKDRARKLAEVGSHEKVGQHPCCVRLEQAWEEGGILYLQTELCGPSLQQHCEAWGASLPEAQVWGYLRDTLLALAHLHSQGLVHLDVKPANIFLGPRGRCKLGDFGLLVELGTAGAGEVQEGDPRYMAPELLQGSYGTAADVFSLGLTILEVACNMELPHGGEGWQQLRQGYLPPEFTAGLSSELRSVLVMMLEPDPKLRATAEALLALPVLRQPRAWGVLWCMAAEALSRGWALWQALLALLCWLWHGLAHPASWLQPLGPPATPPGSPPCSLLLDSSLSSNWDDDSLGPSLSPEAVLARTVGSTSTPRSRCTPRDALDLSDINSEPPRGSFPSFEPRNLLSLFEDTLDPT

SMILES | IC50 [nM]
Cc1ccc(O)c(C)c1-n1c(N)c(C(N)=O)c2nc(-c3nccs3)c(C)nc21 [Compound 31, 6-amino-5-(3-hydroxy-2,6-dimethyl-phenyl)-3-methyl-2-thiazol-2-yl-pyrrolo[2,3-b]pyrazine-7-carboxamide] | < 10
Cc1ccc(O)c(C)c1-n1c(N)c(C(N)=O)c2nc(-c3nc(C)c(C)s3)cnc21 [Compound 32] | < 10
Cc1ccc(O)c(C)c1-n1c(N)c(C(N)=O)c2nc(-c3ccccn3)cnc21 [Compound 34] | < 10
Cc1ccc(O)c(C)c1-n1c(N)c(C(N)=O)c2nc(-c3ccnc(C(F)(F)F)c3)cnc21 [Compound 35, 6-amino-5-(3-hydroxy-2,6-dimethyl-phenyl)-2-[2-(trifluoromethyl)-4-pyridyl]pyrrolo[2,3-b]pyrazine-7-carboxamide] | < 10
Cc1ccc(O)c(C)c1-n1c(N)c(C(N)=O)c2nc(-c3cncs3)cnc21 [Compound 37] | < 10
Cc1ccc(O)c(C)c1-n1c(N)c(C(N)=O)c2nc(-c3cnccn3)cnc21 [Compound 38] | < 10
Cc1ccc(O)c(C)c1-n1c(N)c(C(N)=O)c2nc(-c3ccns3)cnc21 [Compound 41] | < 10
Cc1c(O)ccc(Cl)c1-n1c(N)c(C(N)=O)c2nc(-c3nccs3)cnc21 [Compound 42] | < 10
CNC(=O)C1CCN(c2cnc3c(n2)c(C(N)=O)c(N)n3-c2c(C)ccc(O)c2C)CC1 [Compound 46, 6-amino-5-(3-hydroxy-2,6-dimethyl-phenyl)-2-[4-(methylcarbamoyl)-1-piperidyl]pyrrolo[2,3-b]pyrazine-7-carboxamide] | < 10
Cc1ccc(O)c(C)c1-n1c(N)c(C(N)=O)c2nc(-c3ccncn3)cnc21 [Compound 57] | < 10
Cc1ccc(O)c(C)c1-n1c(N)c(C(N)=O)c2nc(C3=CCC(C(=O)N(C)C)CC3)cnc21 (centres unmarked) [Compound 58] | < 10
Cc1ccc(-c2cnc3c(n2)c(C(N)=O)c(N)n3-c2c(C)ccc(O)c2C)nc1 [Compound 61] | < 10
Cc1ccc(O)c(C)c1-n1c(N)c(C(N)=O)c2nc(-c3ccc(F)cn3)cnc21 [Compound 64] | < 10
Cc1ccc(O)c(C)c1-n1c(N)c(C(N)=O)c2nc(-c3c[nH]cn3)cnc21 [Compound 65] | < 10
Cc1ccc(O)c(C)c1-n1c(N)c(C(N)=O)c2nc(-c3cn(C)cn3)cnc21 [Compound 76] | < 10
Cc1ccc(O)c(C)c1-n1c(N)c(C(N)=O)c2nc(N3CCC(C(=O)N(C)C)CC3)cnc21 [Compound 80] | < 10
Cc1ccc(O)c(C)c1-n1c(N)c(C(N)=O)c2nc(N3CCCCC3)cnc21 [Compound 81] | < 10
Cc1ccc(O)c(C)c1-n1c(N)c(C(N)=O)c2nc(C3CCCCC3)cnc21 [Compound 83] | < 10
Cc1ccc(O)c(C)c1-n1c(N)c(C(N)=O)c2nc(N3CCCC3)cnc21 [Compound 85] | < 10
Cc1ccc(O)c(C)c1-n1c(N)c(C(N)=O)c2nc(C3=CCCCC3)cnc21 [Compound 86] | < 10
CC(=O)N1CCN(c2cnc3c(n2)c(C(N)=O)c(N)n3-c2c(C)ccc(O)c2C)CC1 [Compound 87] | < 10
CCN(CC)c1cnc2c(n1)c(C(N)=O)c(N)n2-c1c(C)ccc(O)c1C [Compound 88] | < 10
Cc1ccc(O)c(C)c1-n1c(N)c(C(N)=O)c2nc(N3CC4CCC(C3)O4)cnc21 [Compound 92] | < 10
Cc1ccc(O)c(C)c1-n1c(N)c(C(N)=O)c2nc(C3CC3)c(C)nc21 [Compound 100] | < 10

SMILES | IC50 [nM]
Cc1ccc(O)c(Cl)c1-n1c(N)c(C(N)=O)c2nc(C3CC3)cnc21 [Compound 104] | < 10
Cc1ccc(O)c(C)c1-n1c(N)c(C(N)=O)c2cc(C(C)(C)O)cnc21 [Compound 131] | < 10
Cc1ccc(O)c(C)c1-n1c(N)c(C(N)=O)c2cc(C(C)C)cnc21 [Compound 138] | < 10
Cc1ccc(O)c(C)c1-n1c(N)c(C(N)=O)c2cc(Br)cnc21 [Compound 141] | < 10
Cc1ccc(O)c(C)c1-n1cc(C(N)=O)c2cc(C3CC3)cnc21 [Compound 143] | < 10
Cc1nc2c(C(N)=O)c(N)n(-c3c(Cl)ccc(O)c3C)c2nc1C [Compound 168] | < 10
Cc1cnc(O)cc1-n1c(N)c(C(N)=O)c2nc(C)c(C)nc21 [Compound 169, 6-amino-5-(2-hydroxy-5-methyl-4-pyridyl)-2,3-dimethyl-pyrrolo[2,3-b]pyrazine-7-carboxamide] | 1730
Cc1ccc(O)c(C)c1-n1c(N)c(C(N)=O)c2nc(C3CCC3)cnc21 [Compound 173, 6-amino-2-cyclobutyl-5-(3-hydroxy-2,6-dimethyl-phenyl) pyrrolo[2,3-b]pyrazine-7-carboxamide] | < 10
Cc1ccc(O)c(C)c1-n1c(N)c(C(N)=O)c2nc(C(C)(C)F)cnc21 [Compound 178, 6-amino-2-(1-fluoro-1-methyl-ethyl)-5-(3-hydroxy-2,6-dimethyl-phenyl) pyrrolo[2,3-b]pyrazine-7-carboxamide] | < 10
Cc1ccc(O)c(C)c1-n1c(N)c(C(N)=O)c2cc(Br)c(C)nc21 [Compound 187] | < 10
Cc1ccc2c(C(N)=O)c(N)n(-c3c(C)ccc(O)c3C)c2n1 [Compound 193] | < 10
Cc1ccc(O)c(C)c1-n1c(N)c(C(N)=O)c2nc(C3(C(F)(F)F)CC3)cnc21 [Compound 198, 6-amino-5-(3-hydroxy-2,6-dimethyl-phenyl)-2-[1-(trifluoromethyl)cyclopropyl]pyrrolo[2,3-b]pyrazine-7-carboxamide] | < 10
C=C(C)c1cnc2c(n1)c(C(N)=O)c(N)n2-c1c(C)ccc(O)c1C [Compound 202] | < 10
Cc1ccc(O)c(C)c1-n1c(N)c(C(N)=O)c2nc(C(N)=O)cnc21 [Compound 220, 6-amino-5-(3-hydroxy-2,6-dimethyl-phenyl) pyrrolo[2,3-b]pyrazine-2,7-dicarboxamide] | < 10
Cc1ccc(O)c(C)c1-n1c(N)c(C(N)=O)c2ncc(C#CCC3CCOCC3)nc21 [Compound 222] | < 10
Cc1ccc(O)c(C)c1-n1c(N)c(C(N)=O)c2ncc(C#CC3(O)CCOCC3)nc21 [Compound 231] | < 10
Cc1ccc(O)c(C)c1-n1c(N)c(C(N)=O)c2ncc(C#CC3(O)CCC(F)(F)CC3)nc21 [Compound 242, 6-amino-3-[2-(4,4-difluoro-1-hydroxy-cyclohexyl)ethynyl]-5-(3-hydroxy-2,6-dimethyl-phenyl) pyrrolo[2,3-b]pyrazine-7-carboxamide] | < 10
Cc1ccc(O)c(C)c1-n1c(N)c(C(N)=O)c2nc(-c3nc4ccccc4s3)cnc21 [Compound 248] | < 10
Cc1ccc(O)c(C)c1-n1c(N)c(C(N)=O)c2nc(-c3ccnnc3)cnc21 [Compound 250] | < 10
C=Cc1cnc2c(n1)c(C(N)=O)c(N)n2-c1c(C)ccc(O)c1C [Compound 259] | < 10
Cc1ncc(O)cc1-n1c(N)c(C(N)=O)c2nc(C)c(C)nc21 [Compound 262] | 3230
NC(=O)c1c(N)n(-c2cccc3[nH]ncc23)c2nccnc12 [Compound 277, 6-amino-5-(1H-indazol-4-yl)pyrrolo[2,3-b]pyrazine-7-carboxamide] | 1380
Cc1ccc(O)c(C)c1-n1c(N)c(S(C)(=O)=O)c2nc(-c3cnccn3)cnc21 [Compound 278] | > 5000

From patent publication US12435090B2, “Compounds, pharmaceutical compositions, and methods of preparing compounds and of their use” (Repare Therapeutics Inc., priority 2021, dated 2025)
